# Reference: patent US20160017286A1, “IKAROS INHIBITION TO AUGMENT ADOPTIVE T CELL TRANSFER” (THE TRUSTEES OF THE UNIVERSITY OF PENNSYLVANIA, priority 2013, published 2016)
# How the values were obtained:
# [1] = system: human CD4 and CD8 T cells; assay: IL2 and IFNγ production (flow cytometry) in human T cells stimulated with anti-CD3/anti-CD28 beads; type: cell-based; conditions: lenalidomide 10 uM vs absence
# [2] = system: human CD8 T cells bearing anti-mesothelin CAR; assay: IL2 and IFNγ production in human anti-mesothelin CAR T cells stimulated with mesothelin-coated beads; type: cell-based; conditions: lenalidomide 10 uM vs absence
compound,measurement,setting,value
Nc1cccc2c1CN(C1CCC(=O)NC1=O)C2=O (stereo not drawn) [lenalidomide],IFNγ production in human CD4+ T cells,[1],increased IL2 and IFNγ production
same,IFNγ production in human CD8+ T cells,[1],increased IL2 and IFNγ production
same,IL2 production in human CD4+ T cells,[1],increased IL2 and IFNγ production
same,IL2 production in human CD8+ T cells,[1],increased IL2 and IFNγ production
same,IFNγ production in human CD4+ T cells,[1]; listed as Lenalidomide,augments IL2 and IFN levels
same,IFNγ production in human CD8+ T cells,[1]; listed as Lenalidomide,augments IL2 and IFN levels
same,IL2 production in human CD4+ T cells,[1]; listed as Lenalidomide,augments IL2 and IFN levels
same,IL2 production in human CD8+ T cells,[1]; listed as Lenalidomide,augments IL2 and IFN levels
same,IFNγ production in human CD8 T cells bearing anti-mesothelin CAR,[2],increased both IL2 and IFNγ production
same,IL2 production in human CD8 T cells bearing anti-mesothelin CAR,[2],increased both IL2 and IFNγ production
same,IFNγ production in human CD8 T cells bearing anti-mesothelin CAR,[2]; listed as Lenalidomide,augments IL2 and IFN levels
same,IL2 production in human CD8 T cells bearing anti-mesothelin CAR,[2]; listed as Lenalidomide,augments IL2 and IFN levels
